Measured values published in patent publication US20090082443A1, “Use of fatty acid esters of glycerol combined with polylysine against gram-negative bacteria” (PURAC BIOCHEM B.V., priority 2007, published 2009).

Columns and labels:
[1] = test system: Salmonella entiritidis (ATCC 13076); assay: Bioscreen growth rate in brain heart infusion broth (synergy study); format: cell-based
Experimental: (§1) The following cultures were used in a study: Escherichia coli (ATCC 8739), Escherichia coli serotype O157:H7 (ATCC 700728), Salmonella typhimurium (ATCC 13311) and Salmonella entiritidis (ATCC 13076). All cultures were transferred daily in screw-capped tubes containing 10 ml brain heart infusion broth. Cultures were incubated at 30° C. without agitation. Brain heart infusion broth was prepared with increasing amounts of the mono/di glyceride and polylysine. The concentration range for the caprylic (C8) mono/di glyceride was as from 0 to 0.18% in 10 0.02% steps, for the capric (C10) mono/di glyceride was as from 0 to 0.09% in 10 0.01% steps, for the lauric (C12)mono/di glyceride was as from 0 to 0.009% in 10 0.001% steps. Mono/di glycerides were combined with polylysine. The concentration range for the polylysine was as from 0 to 0.0675% in 10 0.0075% steps, resulting in 100 different media. The pH of the media was adjusted to 6.1-6.2 with 1 N HCl or 1 N NaOH. Media were prepared in 10 ml quantities and sterilized by filtration. 300 μl of each medium was transferred to a panel of a sterile Bioscreen® honeycomb 100 well plate. Well plates were inoculated with 5 μl of a culture that was grown overnight in brain heart infusion broth using a sterile 5 μl repeating dispenser. Growth rates were determined with a Bioscreen® that kinetically measures the development of turbidity by vertical photometry. The plates were incubated for 16-24 hours at 37° C., the optical density of the cultures was measured every 30 minutes at 420-580 nm using a wide band filter. The Bioscreen® measures at set time intervals the optical density of the cultures. […] The purpose of further data processing is to ascertain whether two […] act independently of each other or whether they stimulate each other in their inhibitory action (synergy) or cancel out each other inhibitory effect (antagonism). […] This implies that only the maximum specific growth rate (μmax) value and not the affinity (Ks) is affected. Therefore the specific growth rate in the presence of inhibitor can be written as: μ=μi.s/(Ks+s), where μi is the maximal specific growth rate in the presence of a inhibitor P. The relationship between μi and μmax and the concentration of the inhibitor P was describes using the Logistic Dose Response equation, which reads: μi/μmax=1/(1+(p/P0.5)^b) (Jungbauer, A. (2001). The logistic dose response function: a robust fitting function for transition phenomena in life sciences. J. Clinical Ligand Assay 24: 270-274). In this equation p represents the concentration of inhibitor P and p0.5 the concentration of P where p=0.5 μmax; μmax is the maximum specific growth rate that is the specific growth rate in the absence of inhibitor P, b is a dimensionless quantity, which determines the relationship between μi and p. Combining the Monod and Logistic Dose Response equation it can be written as: μ=μmax (s/Ks+s)/(1+(p/p0.5)^b). In batch culture where s is usually many times higher than Ks this equation reduces to μ=μmax/(1+(p/p0.5)^b). When comparing different organisms grown under the same conditions, or the same organism grown under different conditions, it is more meaningful to use relative growth rate, rather than absolute growth rates as standards of comparison. Relative growth rate (O) is the ratio of growth rate (μ) to maximum growth rate (μmax) i.e. O=μ/μmax. It can be seen that while μ and μmax have the dimensions of (time)^−1, their ratio O is dimensionless, i.e. a pure number. Similarly we can define the relative inhibitor concentration ε as p/p0.5. The reduced Monod and Logistic Dose Response equation can now be written as: O=1/(1+ε^b).

[2] = test system: Escherichia coli serotype O157:H7 (ATCC 700728); assay: as above; format: cell-based
Experimental: as §1

[3] = test system: Escherichia coli (ATCC 8739); assay: as above; format: cell-based
Experimental: as §1

[4] = test system: Salmonella typhimurium (ATCC 13311); assay: as above; format: cell-based
Experimental: as §1

[5] = test system: Salmonella Typhimurium ATCC 13311; assay: Decontamination of inoculated chicken filets, surviving counts; format: cell-based
Experimental: Salmonella Typhimurium ATCC 13311 and Escherichia coli O157:H7 ATCC 700728 were grown in sterile screw capped tubes containing Brain heart infusion broth for 18-24 hours at 30° C.
Chicken filets (150-200 g) were trimmed, vacuum packaged and stored at 4-7° C. Filets were subsequently sterilized by gamma-irradiation (average radiation dose: 12 kiloGray).
1 ml of an overnight culture of Salmonella Typhimurium in brain heart infusion both was diluted 1000 times with sterile 0.8% (w/v) NaCl and 0.1% (w/v) peptone. 0.5 ml of this diluted culture was transferred to one side of the filet. The inoculum was distributed by gently rubbing the entire surface of the filet. This was repeated for the other side of the filet. Inoculation was carried out at 6° C. Inoculated filets were rested for 60-120 min at 6° C. to allow attachment of the cells.
Chicken filets were briefly dipped and completely submersed in 1 l of a solution containing the appropriate formulation and then transferred to 400 ml Bagfilter® lateral filter bags (Interscience, St Nom, France) containing 5 ml of the appropriate formulation. Bags were vacuum-sealed and incubated at 12° C. for up to 7 days until further analysis. Time zero samples were plated within 30 min after dipping.
Surviving Salmonella Typhimurium on chicken filets were counted as follows: a sealed bag was opened and to this was added 2 times the net weight sterile dilution fluid ([…] NaCl and 0.1% (w/v) bacteriological peptone). Duplicate filets were homogenized for 1 min. in a Bagmixer® 400 paddle labblender (Interscience, St Nom, France). 50 μl of the homogenates or dilutions thereof were plated on duplicate Salmonella chromogenic agar plates (CM1007) with cefsulodin, novobiocin supplement (SR0194) (Oxoid, Basingstoke, United Kingdom) using an Eddyjet type 1.23 spiral plater (IUL Instruments, Barcelona, Spain). Plates were incubated for 24-48 hours at 30° C. and then counted. Salmonella numbers were expressed as log10 colony forming units per ml homogenate.
The compositions of the formulations that were studied are shown in Table 2. ε-Polylysine and mono/di glycerides were dissolved in demineralised water and sterilized for 20 min at 120° C.

[6] = test system: gram-positive and -negative bacteria; conditions: Shima et al. (November 1984); cited from earlier work
[7] = 0.120% (w/w) C8-glycerol ester alone
[8] = 0.090% (w/w) C10-glycerol ester alone
[9] = 0.0225% (w/w) polylysine alone, C8 part of Table 1
[10] = 0.0225% (w/w) polylysine alone, C10 part of Table 1

## glyceryl mono/di octanoate [C8-glycerol ester]
[1]; [7]
  Observed Relative Growth Rate: 0.5220
[2]; [7]
  Observed Relative Growth Rate: 0.9410
[3]; 0.120% (w/w) C8-glycerol ester alone, broth pH 6.1-6.2, 37° C.
  Observed Relative Growth Rate: 1.0845
[4]; [7]
  Observed Relative Growth Rate: 0.4035
[5]; 0.2% (w/v) alone, 12° C., 0 days
  Salmonella Typhimurium on chicken filets: 3.82 log10 colony forming units (CFU)/ml
[5]; 0.2% (w/v) alone, 12° C., 1 day
  Salmonella Typhimurium on chicken filets: 3.81 log10 colony forming units (CFU)/ml
[5]; 0.2% (w/v) alone, 12° C., 2 days
  Salmonella Typhimurium on chicken filets: 4.03 log10 colony forming units (CFU)/ml
[5]; 0.2% (w/v) alone, 12° C., 5 days
  Salmonella Typhimurium on chicken filets: 6.41 log10 colony forming units (CFU)/ml
[5]; 0.2% (w/v) alone, 12° C., 6 days
  Salmonella Typhimurium on chicken filets: 7.48 log10 colony forming units (CFU)/ml
[5]; 0.2% (w/v) alone, 12° C., 7 days
  Salmonella Typhimurium on chicken filets: 7.39 log10 colony forming units (CFU)/ml

## glyceryl mono/di decanoate [C10-glycerol ester]
[1]; [8]
  Observed Relative Growth Rate: 0.8960
[2]; [8]
  Observed Relative Growth Rate: 0.8685
[4]; [8]
  Observed Relative Growth Rate: 0.4613
[5]; 0.05% (w/v) alone, 12° C., 0 days
  Salmonella Typhimurium on chicken filets: 3.72 log10 colony forming units (CFU)/ml
[5]; 0.05% (w/v) alone, 12° C., 1 day
  Salmonella Typhimurium on chicken filets: 3.98 log10 colony forming units (CFU)/ml
[5]; 0.05% (w/v) alone, 12° C., 2 days
  Salmonella Typhimurium on chicken filets: 4.32 log10 colony forming units (CFU)/ml
[5]; 0.05% (w/v) alone, 12° C., 5 days
  Salmonella Typhimurium on chicken filets: 6.0 log10 colony forming units (CFU)/ml
[5]; 0.05% (w/v) alone, 12° C., 6 days
  Salmonella Typhimurium on chicken filets: 7.62 log10 colony forming units (CFU)/ml
[5]; 0.05% (w/v) alone, 12° C., 7 days
  Salmonella Typhimurium on chicken filets: 7.85 log10 colony forming units (CFU)/ml

## ε-Polylysine
[1]; [9]
  Observed Relative Growth Rate: 0.9945
[1]; [10]
  Observed Relative Growth Rate: 0.9600
[2]; [9]
  Observed Relative Growth Rate: 0.8315
[2]; [10]
  Observed Relative Growth Rate: 0.5850
[3]; [9]
  Observed Relative Growth Rate: 0.7570
[4]; [9]
  Observed Relative Growth Rate: 0.9653
[4]; [10]
  Observed Relative Growth Rate: 0.9910
[6]
  concentrations effectively used against bacteria: 1˜8 microgram per ml
[5]; 0.1% (w/v) alone, 12° C., 0 days
  Salmonella Typhimurium on chicken filets: 3.04 log10 colony forming units (CFU)/ml
[5]; 0.1% (w/v) alone, 12° C., 1 day
  Salmonella Typhimurium on chicken filets: 2.04 log10 colony forming units (CFU)/ml
[5]; 0.1% (w/v) alone, 12° C., 2 days
  Salmonella Typhimurium on chicken filets: 2.15 log10 colony forming units (CFU)/ml
[5]; 0.1% (w/v) alone, 12° C., 5 days
  Salmonella Typhimurium on chicken filets: 4.04 log10 colony forming units (CFU)/ml
[5]; 0.1% (w/v) alone, 12° C., 6 days
  Salmonella Typhimurium on chicken filets: 4.26 log10 colony forming units (CFU)/ml
[5]; 0.1% (w/v) alone, 12° C., 7 days
  Salmonella Typhimurium on chicken filets: 5.35 log10 colony forming units (CFU)/ml
[5]; individual components on chicken filets, 12° C.
  killing or growth suppressing effect (in words): reduced the cell numbers
[5]; single addition, after one day of incubation
  reduction in numbers: 2 log10
